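Interpolation was linear, between the two tested concentrations surrounding the appropriate level; five concentrations were tested over 48 hours in 96-well plates. GI50 marks 50% less growth. The concentration for full growth arrest is given as TGI.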 Where only a bound is given, the exact number is not on record here.

Assay in all cases: DTP human tumour cell line panel, 48 h
In assay [1] the test system is DMS 114 small cell lung.
Assay [2] has as its system DMS 273 small cell lung.
Assay [3] has as its system KM12 colon.
Assay [4] has as its system KM20L2 colon.
Assay [5] concerns M19-MEL melanoma.
The test system of assay [6] is RPMI-8226 leukemia.
In assay [7] the test system is SK-MEL-5 melanoma.
Assay [8] deals with SNB-78 CNS.
In assay [9] the test system is UACC-62 melanoma.
In assay [10] the test system is T-47D breast.

`CC12OC3CC(O1)C1(C=O)C4CCC5(C)C(c6ccc(=O)oc6)CCC5(O)C4CCC1(C3)O2` (configuration not stated): the TGI in assay [1] amounted to 0.191 µM; in assay [2], 0.235 µM; in [3] it was 1.4 µM; in [4] it was 1.31 µM; in assay [5] it was 1.16 µM; in assay [6] it was 0.304 µM. Also, the TGI in assay [7] is 0.328 µM; in assay [8], 3.66 µM; in [9], 0.781 µM.

For the compound `O=C(Nc1cc(Cl)c(Cl)cc1Cl)C(=O)C(C(=O)c1ccc2ccccc2c1)C1OC(=O)c2ccccc21` (configuration not stated), the total growth inhibition concentration (TGI) in [1] was 44.1 µM; in assay [3], 31.2 µM; in assay [5], 53.6 µM; in assay [6] it was greater than 100 µM; in [7] it was 24.4 µM; in assay [8], 38.6 µM. In assay [9], this compound yielded a TGI of 26.9 µM.

For `O=C1C2Nc3ccccc3SC2C(=O)N1c1cccc([N+](=O)[O-])c1` (configuration not stated), the TGI in assay [1], in assay [2], in assay [3], in [4], in [5] and in assay [6] was greater than 100 µM throughout. The total growth inhibition concentration (TGI) in [7], in assay [8] and in [9] was greater than 100 µM throughout.

In the case of `CCC[CH2][Sn]1([CH2]CCC)[O]C(=O)c2cc(C)ccc2[O]1`, the concentration for total growth inhibition (TGI) is 0.771 µM in assay [1]; 1.73 µM in assay [2]; 2.7 µM in [3]; 2.64 µM in [4]; 0.599 µM in [6]; 2.11 µM in assay [7]. Moreover, the total growth inhibition concentration (TGI) is 1.01 µM in assay [8] and 1.56 µM in [9]. In addition, the GI50 in assay [2] is 519 nM; in assay [3] it was 1150 nM; in [4], 1350 nM; in assay [6], 193 nM; in assay [7], 854 nM; in assay [8], 368 nM. Besides, the GI50 in assay [9] was 465 nM.

With `CC(C)c1cccc(C(C)C)c1NC1=CC(=O)C(=O)c2ccccc21`, the TGI is greater than 100 µM in [2]; greater than 100 µM in assay [3]; greater than 100 µM in assay [4]; 43.1 µM in [5]; greater than 100 µM in [6]; greater than 100 µM in assay [7]. In addition, the TGI in [8] and in assay [9] was greater than 100 µM each time.

In the case of `OC1C2C=CCC1CCC2` (configuration not stated), the TGI in [1], in assay [2], in assay [3], in assay [4], in assay [5] and in assay [6] was greater than 100 µM throughout. Besides, the TGI in [7], in [8] and in assay [9] was greater than 100 µM each time.

For `CCOC(=O)C1CC/C(=C(/C#N)C(=O)OC)N1` (configuration not stated), the TGI in assay [1], in [2], in [3], in assay [4], in [5] and in [6] was greater than 100 µM each time. The total growth inhibition concentration (TGI) in assay [7], in assay [8] and in [9] was greater than 100 µM throughout.

For `O=C1c2ccccc2C(=O)c2sc(Nc3ccc(Cl)c(Cl)c3)nc21`, the TGI worked out at 3.26 µM in [1]; 22.1 µM in assay [2]; 18 µM in assay [3]; 41.7 µM in assay [4]; 2.44 µM in assay [5]; 5 µM in [6]. Besides, the concentration for total growth inhibition (TGI) in [7] is 5.83 µM; in assay [8], 6.68 µM; in assay [10], 22.7 µM; in assay [9], 7.94 µM.

Take `NNC(=S)N/N=C/C(Cl)=C(\Cl)C(=O)O`: the TGI in assay [1], in assay [2], in assay [4], in [5], in assay [6] and in assay [7] was greater than 100 µM in each case. In addition, the TGI in assay [8] and in [9] was greater than 100 µM in each case.

Take `O=[N+]([O-])c1cc(/C=N/NS(=O)(=O)c2ccc(F)cc2)c(O)c([N+](=O)[O-])c1`: the TGI was greater than 100 µM in assay [1]; 98.9 µM in [2]; 50 µM in assay [3]; 59.3 µM in assay [4]; greater than 100 µM in [5]; greater than 100 µM in [6]. Moreover, the TGI in assay [7] was 72 µM; in [8], greater than 100 µM; in assay [9], greater than 100 µM.

Consider `Cc1cc2c(cc1C)[n+]([O-])c(-c1c(Cl)cccc1Cl)c(N)[n+]2[O-]`, for which the total growth inhibition concentration (TGI) in assay [1] is 98.7 µM; in assay [2], 86.3 µM; in assay [3], greater than 100 µM; in assay [4], greater than 100 µM; in assay [5] it was greater than 100 µM; in assay [6] it was greater than 100 µM. Moreover, the TGI in assay [7] is 41.7 µM; in assay [8] it was greater than 100 µM; in [9], greater than 100 µM.

On to `Nn1c(N=Nc2c(O)[nH]c3ccccc23)n[nH]c1=S`, for which the TGI in assay [1], in assay [3], in assay [4], in assay [5], in [6] and in [8] was greater than 100 µM each time. This compound displayed a TGI in assay [9] greater than 100 µM.

Take `CCOc1ccc(NC(=O)CCC(=O)NN)cc1`: the TGI in assay [1], in assay [2], in assay [3], in assay [4], in [6] and in assay [7] was greater than 100 µM in each case. The compound also displayed a TGI in assay [8] greater than 100 µM.

Regarding `COC(=O)/C(=N\O)C(C(=O)C=C(C)C)C(=O)C(=O)Nc1ccccc1C` (configuration not stated), the total growth inhibition concentration (TGI) in assay [1], in [2], in [3], in assay [4], in [5] and in [6] was greater than 100 µM throughout. The TGI in assay [7], in assay [8] and in assay [9] was greater than 100 µM throughout.

`CCOC(=O)C1(Cc2ccc3ccccc3c2)CCCCCN1` (configuration not stated): the TGI was 87.4 µM in assay [1]; 38.4 µM in assay [2]; 57 µM in [4]; 93.8 µM in assay [5]; 27.6 µM in assay [6]; greater than 100 µM in assay [8]. In assay [9], this compound had a TGI greater than 100 µM.

Consider `CP(C)C.[Ag][I]`, for which the TGI in [1], in assay [2], in [3], in assay [4], in assay [5] and in assay [6] was greater than 100 µM each time. In addition, the TGI in [7] is 46.4 µM; in assay [8], 96.1 µM; in assay [9] it was greater than 100 µM.

Turning to `Cc1nc(N)sc1C(=O)/C=C/c1ccc([N+](=O)[O-])cc1`, the TGI in [1], in assay [2], in [3], in assay [4], in assay [5] and in assay [6] was greater than 100 µM in each case. Besides, the total growth inhibition concentration (TGI) in assay [7], in assay [8] and in [9] was greater than 100 µM in each case.

As for `COC(=O)C1=Cc2c(OC)cc(OC)c(OC)c2[C@H](c2cc(OC)c(OC)cc2OC)C1C(=O)OC` (some centres not stated), the TGI in assay [1], in [2], in assay [3], in [4], in [5] and in assay [6] was greater than 100 µM throughout. The TGI in [7], in assay [8] and in assay [9] was greater than 100 µM in each case.

On to `C=C=[CH][Sn]([c]1ccccc1)([c]1ccccc1)[c]1ccccc1`, for which the GI50 in [1] was 1520 nM; in [3] it was 1490 nM; in assay [4] it was 2020 nM; in assay [5] it was 1620 nM; in assay [6] it was 1400 nM; in assay [7] it was 1560 nM. For the same compound, the GI50 in [8] was 3100 nM; in [10], 1290 nM; in assay [9] it was 1650 nM. The concentration for total growth inhibition (TGI) in [1] amounted to 2.94 µM; in [3], 2.95 µM; in assay [4], 4 µM; in [5] it was 3.06 µM; in assay [6], 4.36 µM; in assay [7], 3.09 µM. Further, the TGI turned out to be 9.29 µM in assay [8], 2.82 µM in [10] and 3.28 µM in [9].

Regarding `C=C1CC(C/C=C(\C)CC2CC(=C)C(=O)O2)OC1=O` (configuration not stated), the concentration for total growth inhibition (TGI) in [1], in assay [2], in assay [3], in assay [4], in [5] and in assay [7] was greater than 100 µM in each case. Also, the TGI in assay [8] and in assay [9] was greater than 100 µM throughout.

With `N#CC12Cc3ccc4c(c3-c3cccc(c31)CCN2C(=O)c1ccccc1)OCO4` (configuration not stated), the TGI in [1], in assay [2], in assay [3], in assay [4], in assay [5] and in assay [6] was greater than 100 µM each time. In addition, the TGI in assay [7], in assay [8] and in assay [9] was greater than 100 µM each time.

In the case of `Cc1cc(=O)[nH]c(CNC(=O)Cc2ccccc2)n1`, the TGI in assay [1], in assay [2], in [3], in assay [4], in [5] and in assay [6] was greater than 100 µM throughout. The TGI in assay [8] and in [9] was greater than 100 µM each time.

These data come from PubChem BioAssay (NCI).
